Measured values taken from US20260325533A1, “CDK INHIBITOR COMPOUNDS” (ALEKSIA THERAPEUTICS, INC., priority 2023, published 2026).
Where two headings read alike, the source gives them in different places.

Assays:
Type in all cases: biochemical
CDK1/CCNB1 = CDK1/CCNB1 (Homo sapiens, UniProt P06493); assay: CDK1 homogeneous time-resolved fluorescence (HTRF) kinase assay; details: CDK1/CCNB
How it was run: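 HTRF assay with 0.5 nM CDK1/CCNB1, 1 mM ATP, 50 nM ULight-eIF4E-BP1 (Thr37/46) peptide; compound preincubated 20 min, reaction 60 min at 23 °C, EDTA stop, Eu-anti-phospho antibody detection. 11-point half-log titration from 10 μM, 1% DMSO; IC50 from 665 nm or 665/615 signal.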

CDK4/CCND3 = CDK4/CCND3 (Homo sapiens, UniProt P11802); assay: CDK4 homogeneous time-resolved fluorescence (HTRF) kinase assay; details: CDK4/CCND
How it was run: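 HTRF kinase assay, CDK4/CCND3 1.5 nM, ATP 1 mM, ULight-4E-BP1 peptide 50 nM, 23 °C, 60 min reaction after 20 min preincubation. Eu-anti-pThr37/46 antibody detection. 11-pt half-log curves from 10 μM → IC50.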

CDK6/CCND1 = CDK6/CCND1 (Homo sapiens, UniProt Q00534); assay: CDK6 homogeneous time-resolved fluorescence (HTRF) kinase assay; details: CDK6/CCND
How it was run: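 Recombinant CDK6/CCND1 (1 nM final) was preincubated with compound for 20 min at 23 °C in HEPES buffer with MgCl2, EGTA, DTT and Tween 20. Kinase reaction then ran 60 min at 23 °C with 1 mM ATP and 50 nM ULight-4E-BP1 (Thr37/46) peptide, and was stopped with EDTA.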

CDK2/CCNE1 = CDK2/CCNE1 (Homo sapiens, UniProt P24941); assay: CDK2 homogeneous time-resolved fluorescence (HTRF) kinase assay; details: CDK2/CCNE
How it was run: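 TR-FRET read-out (665 nm, or 665/615 ratio) of Eu-antibody detection of phospho-4E-BP1 (Thr37/46) ULight peptide. Enzyme 3 nM, ATP 1 mM, peptide 50 nM, 1% DMSO; 60 min reaction at 23 °C after 20 min compound preincubation. IC50 from 11-point half-log titrations, top typically 10 μM.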

[1] = 25-250 nM marked x, read-out: CDK1/CCNB IC50 25-250 nM
[2] = <25 nM, read-out: CDK4/CCND IC50 <25 nM
[3] = <25 nM, read-out: CDK6/CCND IC50 <25 nM
[4] = <25 nM, read-out: CDK2/CCNE IC50 <25 nM
[5] = >250 nM marked x, read-out: CDK1/CCNB IC50 >250 nM
[6] = 25-250 nM marked x, read-out: CDK4/CCND IC50 25-250 nM
[7] = 25-250 nM marked x, read-out: CDK6/CCND IC50 25-250 nM
[8] = 25-250 nM marked x, read-out: CDK2/CCNE IC50 25-250 nM

CDK1/CCNB1, sequence (P06493 whole entry): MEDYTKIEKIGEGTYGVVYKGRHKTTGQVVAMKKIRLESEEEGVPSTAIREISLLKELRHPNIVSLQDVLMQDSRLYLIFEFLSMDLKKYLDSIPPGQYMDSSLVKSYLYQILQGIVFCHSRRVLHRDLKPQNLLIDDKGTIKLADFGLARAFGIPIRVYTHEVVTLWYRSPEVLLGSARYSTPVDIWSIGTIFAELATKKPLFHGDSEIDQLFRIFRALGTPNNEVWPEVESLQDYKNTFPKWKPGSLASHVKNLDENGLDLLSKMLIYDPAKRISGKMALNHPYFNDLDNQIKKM
CDK1/CCNB1, sequence (P14635 whole entry partner): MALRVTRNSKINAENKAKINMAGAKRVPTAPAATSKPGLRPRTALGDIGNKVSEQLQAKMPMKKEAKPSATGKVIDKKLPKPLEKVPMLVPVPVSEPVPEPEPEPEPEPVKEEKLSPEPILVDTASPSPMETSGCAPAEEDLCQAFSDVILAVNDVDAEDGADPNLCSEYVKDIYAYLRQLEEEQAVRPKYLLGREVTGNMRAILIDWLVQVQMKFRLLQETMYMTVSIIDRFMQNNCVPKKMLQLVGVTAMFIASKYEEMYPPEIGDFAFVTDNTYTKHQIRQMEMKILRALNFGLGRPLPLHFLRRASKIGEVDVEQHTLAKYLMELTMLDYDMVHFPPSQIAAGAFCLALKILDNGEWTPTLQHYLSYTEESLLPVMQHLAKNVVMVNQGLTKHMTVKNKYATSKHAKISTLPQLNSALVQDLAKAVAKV
CDK4/CCND3, sequence (P11802 whole entry): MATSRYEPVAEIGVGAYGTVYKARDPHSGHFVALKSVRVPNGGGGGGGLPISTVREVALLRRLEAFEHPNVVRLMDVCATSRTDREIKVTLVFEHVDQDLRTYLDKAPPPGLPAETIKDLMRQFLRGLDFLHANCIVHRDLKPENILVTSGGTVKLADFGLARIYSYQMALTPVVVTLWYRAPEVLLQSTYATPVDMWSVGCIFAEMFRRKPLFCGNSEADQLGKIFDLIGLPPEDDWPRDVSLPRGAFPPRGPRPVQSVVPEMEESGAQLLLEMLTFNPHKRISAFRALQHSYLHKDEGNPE
CDK4/CCND3, sequence (P30281 whole entry partner): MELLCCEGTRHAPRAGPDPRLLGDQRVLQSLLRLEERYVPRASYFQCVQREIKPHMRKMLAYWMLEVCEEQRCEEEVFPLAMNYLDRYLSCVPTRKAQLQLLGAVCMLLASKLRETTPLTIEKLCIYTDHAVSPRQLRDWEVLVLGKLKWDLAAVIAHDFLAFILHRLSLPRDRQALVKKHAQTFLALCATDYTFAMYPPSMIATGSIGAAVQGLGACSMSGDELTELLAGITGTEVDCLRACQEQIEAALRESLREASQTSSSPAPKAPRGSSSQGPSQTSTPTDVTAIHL
CDK6/CCND1, sequence (Q00534 whole entry): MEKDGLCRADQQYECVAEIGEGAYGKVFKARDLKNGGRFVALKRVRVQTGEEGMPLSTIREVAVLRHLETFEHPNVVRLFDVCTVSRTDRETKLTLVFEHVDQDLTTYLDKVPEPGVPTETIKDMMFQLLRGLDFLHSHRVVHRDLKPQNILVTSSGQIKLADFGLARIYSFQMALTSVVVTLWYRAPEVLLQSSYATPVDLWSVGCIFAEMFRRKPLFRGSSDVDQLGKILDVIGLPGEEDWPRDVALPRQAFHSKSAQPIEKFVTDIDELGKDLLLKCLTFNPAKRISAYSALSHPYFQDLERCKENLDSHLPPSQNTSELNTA
CDK6/CCND1, sequence (P24385 whole entry partner): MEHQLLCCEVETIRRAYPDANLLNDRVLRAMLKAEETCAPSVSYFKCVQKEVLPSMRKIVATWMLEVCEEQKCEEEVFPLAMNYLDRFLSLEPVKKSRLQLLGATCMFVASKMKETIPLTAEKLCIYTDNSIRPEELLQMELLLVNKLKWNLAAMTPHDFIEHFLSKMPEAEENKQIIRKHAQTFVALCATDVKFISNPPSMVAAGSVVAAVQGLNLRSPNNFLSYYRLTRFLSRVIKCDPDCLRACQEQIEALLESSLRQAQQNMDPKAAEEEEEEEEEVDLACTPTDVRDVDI

IC50 (CDK1/CCNB1; [1]) [nM]	IC50 (CDK4/CCND3; [2]) [nM]	IC50 (CDK6/CCND1; [3]) [nM]	IC50 (CDK2/CCNE1; [4]) [nM]	IC50 (CDK1/CCNB1; [5]) [nM]	IC50 (CDK4/CCND3; [6]) [nM]	IC50 (CDK6/CCND1; [7]) [nM]	IC50 (CDK2/CCNE1; [8]) [nM]	SMILES
25 to 250	< 25	< 25	< 25					CS(=O)(=O)N1CCC(Nc2cc3c(-c4ccc5[nH]ccc5c4)nccc3cn2)CC1 [Ex 63, 5-(1H-indol-5-yl)-N-(1-(methylsulfonyl)piperidin-4-yl)-2,6-naphthyridin-3-amine]
25 to 250	< 25	< 25	< 25					CS(=O)(=O)N1CCC(Nc2cc3c(-c4cccc(CO)c4)nccc3cn2)CC1 [Ex 64, (3-(7-((1-(methylsulfonyl)piperidin-4-yl)amino)-2,6-naphthyridin-1-yl)phenyl)methanol]
		< 25	< 25	> 250	25 to 250			CS(=O)(=O)N1CCC(Nc2cc3c(-c4ccc(O)cc4)nccc3cn2)CC1 [Ex 68, 4-(7-((1-(methylsulfonyl)piperidin-4-yl)amino)-2,6-naphthyridin-1-yl)phenol]
25 to 250			< 25		25 to 250	25 to 250		CS(=O)(=O)N1CCC(Nc2cc3c(-c4cccc(O)c4)nccc3cn2)CC1 [Ex 69, 3-(7-((1-(methylsulfonyl)piperidin-4-yl)amino)-2,6-naphthyridin-1-yl)phenol]
		< 25	< 25	> 250	25 to 250			CS(=O)(=O)N1CCC(Nc2cc3c(-c4ccc5ocnc5c4)nccc3cn2)CC1 [Ex 70, 5-(benzo[d]oxazol-5-yl)-N-(1-(methylsulfonyl)piperidin-4-yl)-2,6-naphthyridin-3-amine]
25 to 250			< 25		25 to 250	25 to 250		COCc1cccc(-c2nccc3cnc(NC4CCN(S(C)(=O)=O)CC4)cc23)c1 [Ex 71, 5-(3-(methoxymethyl)phenyl)-N-(1-(methylsulfonyl)piperidin-4-yl)-2,6-naphthyridin-3-amine]
			< 25	> 250	25 to 250	25 to 250		CS(=O)(=O)N1CCC(Nc2cc3c(-c4cccc(N)c4)nccc3cn2)CC1 [Ex 72, 5-(3-aminophenyl)-N-(1-(methylsulfonyl)piperidin-4-yl)-2,6-naphthyridin-3-amine]
25 to 250		< 25	< 25		25 to 250			CS(=O)(=O)N1CCC(Nc2cc3c(-c4ccc(N)cc4)nccc3cn2)CC1 [Ex 73, 5-(4-aminophenyl)-N-(1-(methylsulfonyl)piperidin-4-yl)-2,6-naphthyridin-3-amine]
			< 25	> 250	25 to 250	25 to 250		CS(=O)(=O)N1CCC(Nc2cc3c(-c4ccc(C#N)cc4)nccc3cn2)CC1 [Ex 74, 4-(7-((1-(methylsulfonyl)piperidin-4-yl)amino)-2,6-naphthyridin-1-yl)benzonitrile]
			< 25	> 250	25 to 250	25 to 250		CS(=O)(=O)N1CCC(Nc2cc3c(-c4cccc(C#N)c4)nccc3cn2)CC1 [Ex 75, 3-(7-((1-(methylsulfonyl)piperidin-4-yl)amino)-2,6-naphthyridin-1-yl)benzonitrile]
25 to 250	< 25	< 25	< 25					CS(=O)(=O)N1CCC(Nc2cc3c(-c4ccc5cn[nH]c5c4)nccc3cn2)CC1 [Ex 76, 5-(1H-indazol-6-yl)-N-(1-(methylsulfonyl)piperidin-4-yl)-2,6-naphthyridin-3-amine]
			< 25	> 250	25 to 250	25 to 250		CS(=O)(=O)N1CCC(Nc2cc3c(-c4ccc5[nH]ncc5c4)nccc3cn2)CC1 [Ex 77, 5-(1H-indazol-5-yl)-N-(1-(methylsulfonyl)piperidin-4-yl)-2,6-naphthyridin-3-amine]
		< 25	< 25	> 250	25 to 250			CS(=O)(=O)N1CCC(Nc2cc3c(-c4ccc(CO)cc4)nccc3cn2)CC1 [Ex 78, (4-(7-((1-(methylsulfonyl)piperidin-4-yl)amino)-2,6-naphthyridin-1-yl)phenyl)methanol]
			< 25	> 250	25 to 250	25 to 250		CS(=O)(=O)N1CCC(Nc2cc3c(-c4ccccc4OC(F)(F)F)nccc3cn2)CC1 [Ex 81, N-(1-(methylsulfonyl)piperidin-4-yl)-5-(2-(trifluoromethoxy)phenyl)-2,6-naphthyridin-3-amine]
			< 25	> 250	25 to 250	25 to 250		CS(=O)(=O)N1CCC(Nc2cc3c(-c4cncs4)nccc3cn2)CC1 [Ex 82, N-(1-(methylsulfonyl)piperidin-4-yl)-5-(thiazol-5-yl)-2,6-naphthyridin-3-amine]
			< 25	> 250	25 to 250	25 to 250		CS(=O)(=O)N1CCC(Nc2cc3c(C4=CCOCC4)nccc3cn2)CC1 [Ex 87, 5-(3,6-dihydro-2H-pyran-4-yl)-N-(1-(methylsulfonyl)piperidin-4-yl)-2,6-naphthyridin-3-amine]
25 to 250	< 25	< 25	< 25					CS(=O)(=O)N1CCC(Nc2cc3c(-c4ccc5cc[nH]c5c4)nccc3cn2)CC1 [Ex 89, 5-(1H-indol-6-yl)-N-(1-(methylsulfonyl)piperidin-4-yl)-2,6-naphthyridin-3-amine]
			< 25	> 250	25 to 250	25 to 250		CS(=O)(=O)N1CCC(Nc2cc3c(-c4cc[nH]c4)nccc3cn2)CC1 [Ex 90, N-(1-(methylsulfonyl)piperidin-4-yl)-5-(1H-pyrrol-3-yl)-2,6-naphthyridin-3-amine]
			< 25	> 250	25 to 250	25 to 250		CS(=O)(=O)N1CCC(Nc2cc3c(-c4ccc5c(c4)CC(=O)N5)nccc3cn2)CC1 [Ex 91, 5-(7-((1-(methylsulfonyl)piperidin-4-yl)amino)-2,6-naphthyridin-1-yl)indolin-2-one]
25 to 250					25 to 250	25 to 250	25 to 250	CN(CCO)C(=O)c1nccc2cnc(NC3CCN(S(C)(=O)=O)CC3)cc12 [Ex 96, N-(2-hydroxyethyl)-N-methyl-7-((1-(methylsulfonyl)piperidin-4-yl)amino)-2,6-naphthyridine-1-carboxamide]
25 to 250		< 25	< 25		25 to 250			Oc1ccc(Nc2cc3c(C4=CCCCC4)nccc3cn2)cc1 [Ex 99, 4-((5-(cyclohex-1-en-1-yl)-2,6-naphthyridin-3-yl)amino)phenol]
		< 25	< 25	> 250	25 to 250			Oc1cccc(Nc2cc3c(C4=CCCCC4)nccc3cn2)c1 [Ex 100, 3-((5-(cyclohex-1-en-1-yl)-2,6-naphthyridin-3-yl)amino)phenol]
25 to 250	< 25	< 25	< 25					CS(=O)(=O)N1CCC(Nc2cc3c(C4=CCCCC4)nccc3cn2)CC1 [Ex 102, 5-(cyclohex-1-en-1-yl)-N-(1-(methylsulfonyl)piperidin-4-yl)-2,6-naphthyridin-3-amine]
				> 250	25 to 250	25 to 250	25 to 250	C=CS(=O)(=O)N1CCC(Nc2cc3c(N4CCC(C5CCN(C)CC5)CC4)nccc3cn2)CC1 [Ex 103, 5-(1'-methyl-[4,4'-bipiperidin]-1-yl)-N-(1-(vinylsulfonyl)piperidin-4-yl)-2,6-naphthyridin-3-amine]
25 to 250			< 25		25 to 250	25 to 250		C=CS(=O)(=O)N1CCC(Nc2cc3c(N4CCC(C#N)CC4)nccc3cn2)CC1 [Ex 106, 1-(7-((1-(vinylsulfonyl)piperidin-4-yl)amino)-2,6-naphthyridin-1-yl)piperidine-4-carbonitrile]
			< 25	> 250	25 to 250	25 to 250		C=CS(=O)(=O)N1CCC(Nc2cc3c(-c4ccncc4C)nccc3cn2)CC1 [Ex 107, 5-(3-methylpyridin-4-yl)-N-(1-(vinylsulfonyl)piperidin-4-yl)-2,6-naphthyridin-3-amine]
